pIC50: −log10 of the molar value.
What was measured:
[1] = molecular target: T1, CDK2/Cyclin E2 (Homo sapiens, UniProt P24941); test: CDK2/CyclinE2 Enzymatic Activity Assay (TR-FRET); assay type: biochemical; details: ATP 1 mM final, read-out: CDK2_E1 IC50
T1 construct: Recombinant protein complex CDK2/Cyclin E2, expressed from insect cell, was purchased from ProQinase
Procedure, shortened: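 Recombinant insect-cell CDK2/Cyclin E2 (1 nM) phosphorylated ULight-4E-BP1 (50 nM) with 1 mM ATP in HEPES pH 7.4 buffer, after 20 min compound preincubation; MgCl2 (10 mM) started the 45 min reaction at 37° C. Europium anti-phospho-4E-BP1 TR-FRET read; 9-dose IC50 by 4-parameter fit.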

[2] = molecular target: T2, CDK4/Cyclin D1 (Homo sapiens, UniProt P11802); test: CDK4/CyclinD1 Enzymatic Activity Assay (TR-FRET); assay type: biochemical; details: ATP 2 mM final, read-out: CDK4_D1 IC50
T2 construct: purchased ProQinase; host or cells: insect cell
Procedure, shortened: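 Insect-cell-expressed CDK4/Cyclin D1 (1 nM) with ULight-4E-BP1 (100 nM) and 2 mM ATP in HEPES pH 7.4; 9-dose 3-fold compound series preincubated 20 min, reaction started with 10 mM MgCl2, 45 min at 37° C. Europium anti-P-4E-BP1 TR-FRET read; IC50 from 4-parameter Hill fit.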

[3] = tested on: OVCAR3 p-RB; test: pRB ICW Assay in OVCAR3 Cells; assay type: cell-based; details: Homo sapiens, OVCAR-3, incubated with compound for 2 hours
Procedure, shortened: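 In-Cell Western on OVCAR3: phospho-RB antibody signal with DRAQ5 counterstain read at 700 and 800 nm after fixation. Compounds were applied for 2 h at 37° C. as 9-point ½-log dilutions in duplicate; 10 μM reference compound defined full inhibition.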

T2 sequence (P11802 whole entry): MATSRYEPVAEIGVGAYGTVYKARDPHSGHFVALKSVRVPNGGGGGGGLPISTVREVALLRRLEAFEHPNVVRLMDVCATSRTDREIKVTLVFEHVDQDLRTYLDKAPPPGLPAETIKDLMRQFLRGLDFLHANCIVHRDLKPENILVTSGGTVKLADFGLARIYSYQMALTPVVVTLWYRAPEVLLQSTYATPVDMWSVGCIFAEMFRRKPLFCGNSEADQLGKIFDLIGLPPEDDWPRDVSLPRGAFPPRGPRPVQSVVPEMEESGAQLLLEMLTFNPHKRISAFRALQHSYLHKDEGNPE
T2 sequence (P24385 whole entry partner): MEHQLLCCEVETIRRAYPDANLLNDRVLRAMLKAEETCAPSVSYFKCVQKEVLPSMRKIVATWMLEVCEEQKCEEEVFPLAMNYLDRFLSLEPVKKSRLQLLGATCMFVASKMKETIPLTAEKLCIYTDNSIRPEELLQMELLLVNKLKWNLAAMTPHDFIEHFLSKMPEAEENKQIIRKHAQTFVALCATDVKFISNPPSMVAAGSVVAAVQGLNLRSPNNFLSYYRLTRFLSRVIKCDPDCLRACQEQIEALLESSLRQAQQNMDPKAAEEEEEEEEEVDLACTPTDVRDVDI

Compound `Cc1sc(-c2nc(NC3CCN(S(=O)(=O)c4cnn(C)c4)CC3)ncc2C(F)(F)F)cc1C(F)F` [Example 79, 4-(4-(difluoromethyl)-5-methylthiophen-2-yl)-N-(1-((1-methyl-1H-pyrazol-4-yl)sulfonyl)piperidin-4-yl)-5-(trifluoromethyl)pyrimidin-2-amine] has a pIC50 [1] of no less than 7.00, a pIC50 [2] of no less than 7.00 and a pIC50 [3] of 6.30 to 7.00.
For `Cc1sc(-c2nc(NC3CCN(S(C)(=O)=O)CC3)ncc2C(F)(F)F)cc1C(F)F` [Example 80, 4-(4-(difluoromethyl)-5-methylthiophen-2-yl)-N-(1-(methylsulfonyl)piperidin-4-yl)-5-(trifluoromethyl)pyrimidin-2-amine], the pIC50 [1] was no less than 7.00, the pIC50 [2] was no less than 7.00 and the pIC50 [3] was 6.30 to 7.00.
Work on `CC(=O)c1cc(-c2nc(NC3CCN(S(=O)(=O)c4cnn(C)c4)CC3)ncc2C(F)(F)F)sc1C` [Example 81, 1-(2-methyl-5-(2-((1-((1-methyl-1H-pyrazol-4-yl)sulfonyl)piperidin-4-yl)amino)-5-(trifluoromethyl)pyrimidin-4-yl)thiophen-3-yl)ethan-1-one] yielded a pIC50 [1] of no less than 7.00, a pIC50 [2] of no less than 7.00 and a pIC50 [3] of no less than 7.00.
`COCc1cc(-c2nc(NC3CCN(S(=O)(=O)c4cnn(C)c4)CC3)ncc2C(F)(F)F)sc1C` [Example 82, 4-(4-(methoxymethyl)-5-methylthiophen-2-yl)-N-(1-((1-methyl-1H-pyrazol-4-yl)sulfonyl)piperidin-4-yl)-5-(trifluoromethyl)pyrimidin-2-amine] showed a pIC50 [1] of no less than 7.00, a pIC50 [2] of 6.30 to 7.00 and a pIC50 [3] of less than 6.30.
`Cc1sc(-c2nc(NC3CCN(S(C)(=O)=O)CC3)ncc2C(F)(F)F)cc1C#N` [Example 83, 2-methyl-5-(2-((1-(methylsulfonyl)piperidin-4-yl)amino)-5-(trifluoromethyl)pyrimidin-4-yl)thiophene-3-carbonitrile] was tested, and the pIC50 [1] was no less than 7.00, the pIC50 [2] was no less than 7.00 and the pIC50 [3] was 6.30 to 7.00.
Compound `CS(=O)(=O)N1CCC(Nc2ncc(C(F)(F)F)c(-c3cc(C(N)=O)ns3)n2)CC1` [Example 84, 5-(2-((1-(methylsulfonyl)piperidin-4-yl)amino)-5-(trifluoromethyl)pyrimidin-4-yl)isothiazole-3-carboxamide] has a pIC50 [1] of no less than 7.00, a pIC50 [2] of no less than 7.00 and a pIC50 [3] of no less than 7.00.
For `Cc1sc(-c2nc(N[C@H]3CCN(S(=O)(=O)c4cnn(C)c4)C[C@H]3C)ncc2C(F)(F)F)cc1C#N` [Example 85, 2-methyl-5-(2-(((3R,4S)-3-methyl-1-((1-methyl-1H-pyrazol-4-yl)sulfonyl)piperidin-4-yl)amino)-5-(trifluoromethyl)pyrimidin-4-yl)thiophene-3-carbonitrile], the pIC50 [1] was no less than 7.00, the pIC50 [2] was 6.30 to 7.00 and the pIC50 [3] was 6.30 to 7.00.
For `Cc1sc(-c2nc(N[C@H]3CCN(S(=O)(=O)c4c[nH]cn4)C[C@H]3C)ncc2C(F)(F)F)cc1C#N` [Example 86, 5-(2-(((3R,4S)-1-((1H-imidazol-4-yl)sulfonyl)-3-methylpiperidin-4-yl)amino)-5-(trifluoromethyl)pyrimidin-4-yl)-2-methylthiophene-3-carbonitrile], the pIC50 [1] was no less than 7.00, the pIC50 [2] was less than 6.30 and the pIC50 [3] was less than 6.30.
Compound `C[C@@H]1CN(S(=O)(=O)c2cnn(CC#N)c2)CC[C@@H]1Nc1ncc(C(F)(F)F)c(-c2cc(C(N)=O)cs2)n1` [Example 87, 5-(2-(((3R,4S)-1-((1-(Cyanomethyl)-1H-pyrazol-4-yl)sulfonyl)-3-methylpiperidin-4-yl)amino)-5-(trifluoromethyl)pyrimidin-4-yl)thiophene-3-carboxamide] has a pIC50 [1] of no less than 7.00, a pIC50 [2] of no less than 7.00 and a pIC50 [3] of no less than 7.00.
Compound `Cc1sc(-c2nc(NC3CCN(S(=O)(=O)c4cnn(CC#N)c4)CC3)ncc2C(F)(F)F)cc1C#N` [Example 88, 5-(2-((1-((1-(cyanomethyl)-1H-pyrazol-4-yl)sulfonyl)piperidin-4-yl)amino)-5-(trifluoromethyl)pyrimidin-4-yl)-2-methylthiophene-3-carbonitrile] has a pIC50 [1] of no less than 7.00, a pIC50 [2] of no less than 7.00 and a pIC50 [3] of no less than 7.00.
In the case of `CC(O)c1cnc(-c2nc(NC3CCN(S(=O)(=O)c4cnn(C)c4)CC3)ncc2C(F)(F)F)s1` (stereo not drawn) [Example 89, 1-(2-(2-((1-((1-Methyl-1H-pyrazol-4-yl)sulfonyl)piperidin-4-yl)amino)-5-(trifluoromethyl)pyrimidin-4-yl)thiazol-5-yl)ethan-1-ol], the pIC50 [1] was no less than 7.00, the pIC50 [2] was no less than 7.00 and the pIC50 [3] was no less than 7.00.
In the case of `CC(O)c1sc(-c2nc(NC3CCN(S(=O)(=O)c4cnn(C)c4)CC3)ncc2C(F)(F)F)cc1C#N` (stereo not drawn) [Example 90, 2-(1-Hydroxyethyl)-5-(2-((1-((1-methyl-1H-pyrazol-4-yl)sulfonyl)piperidin-4-yl)amino)-5-(trifluoromethyl)pyrimidin-4-yl)thiophene-3-carbonitrile], the pIC50 [1] was no less than 7.00, the pIC50 [2] was no less than 7.00 and the pIC50 [3] was no less than 7.00.
Work on `Cn1cc(S(=O)(=O)N2CCC(Nc3ncc(C(F)(F)F)c(-c4cc(C#N)ns4)n3)CC2)cn1` [Example 91, 5-(2-((1-((1-methyl-1H-pyrazol-4-yl)sulfonyl)piperidin-4-yl)amino)-5-(trifluoromethyl)pyrimidin-4-yl)isothiazole-3-carbonitrile] yielded a pIC50 [1] of no less than 7.00, a pIC50 [2] of 6.30 to 7.00 and a pIC50 [3] of 6.30 to 7.00.
`Cn1cnc(S(=O)(=O)N2CCC(Nc3ncc(C(F)(F)F)c(-c4nc(C(N)=O)cs4)n3)CC2)c1` [Example 92, 2-(2-((1-((1-Methyl-1H-imidazol-4-yl)sulfonyl)piperidin-4-yl)amino)-5-(trifluoromethyl)pyrimidin-4-yl)thiazole-4-carboxamide] showed a pIC50 [1] of less than 6.30, a pIC50 [2] of less than 6.30 and a pIC50 [3] of less than 6.30.
`Cc1sc(-c2nc(NC3CCN(S(=O)(=O)c4cnc(N)s4)CC3)ncc2C(F)(F)F)cc1C#N` [Example 93, 5-(2-((1-((2-Aminothiazol-5-yl)sulfonyl)piperidin-4-yl)amino)-5-(trifluoromethyl)pyrimidin-4-yl)-2-methylthiophene-3-carbonitrile] gave a pIC50 [1] of no less than 7.00, a pIC50 [2] of 6.30 to 7.00 and a pIC50 [3] of 6.30 to 7.00.
`Cc1sc(-c2nc(N[C@H]3CCN(S(=O)(=O)c4cnc(N)s4)C[C@H]3C)ncc2C(F)(F)F)cc1C#N` [Example 94, 5-(2-(((3R,4S)-1-((2-aminothiazol-5-yl)sulfonyl)-3-methylpiperidin-4-yl)amino)-5-(trifluoromethyl)pyrimidin-4-yl)-2-methylthiophene-3-carbonitrile] gave a pIC50 [1] of no less than 7.00, a pIC50 [2] of less than 6.30 and a pIC50 [3] of 6.30 to 7.00.
`C[C@@H]1CN(S(=O)(=O)c2cnn(C)c2)CC[C@@H]1Nc1ncc(C(F)(F)F)c(-c2ncc(C(C)(C)O)s2)n1` [Example 100, 2-(2-(2-(((3R,4S)-3-methyl-1-((1-methyl-1H-pyrazol-4-yl)sulfonyl)piperidin-4-yl)amino)-5-(trifluoromethyl)pyrimidin-4-yl)thiazol-5-yl)propan-2-ol] was tested, and the pIC50 [1] was no less than 7.00, the pIC50 [2] was no less than 7.00 and the pIC50 [3] was no less than 7.00.
`CC(O)(c1cnc(-c2nc(NC3CCN(S(C)(=O)=O)CC3)ncc2C(F)(F)F)s1)C(F)(F)F` (stereo not drawn) [Example 103, 1,1,1-trifluoro-2-(2-(2-((1-(methylsulfonyl)piperidin-4-yl)amino)-5-(trifluoromethyl)pyrimidin-4-yl)thiazol-5-yl)propan-2-ol] showed a pIC50 [1] of no less than 7.00, a pIC50 [2] of no less than 7.00 and a pIC50 [3] of no less than 7.00.
`C[C@@H]1CN(S(=O)(=O)c2cn(C)cn2)CC[C@@H]1Nc1ncc(C(F)(F)F)c(-c2ncc(C(C)(O)C(F)F)s2)n1` (stereo partly drawn) [Example 104, 1,1-difluoro-2-(2-(2-(((3R,4S)-3-methyl-1-((1-methyl-1H-imidazol-4-yl)sulfonyl)piperidin-4-yl)amino)-5-(trifluoromethyl)pyrimidin-4-yl)thiazol-5-yl)propan-2-ol] gave a pIC50 [1] of no less than 7.00, a pIC50 [2] of no less than 7.00 and a pIC50 [3] of no less than 7.00.
In the case of `CC(C)(O)Cc1cnc(-c2nc(NC3CCN(S(C)(=O)=O)CC3)ncc2C(F)(F)F)s1` [Example 107, 2-Methyl-1-(2-(2-((1-(methylsulfonyl)piperidin-4-yl)amino)-5-(trifluoromethyl)pyrimidin-4-yl)thiazol-5-yl)propan-2-ol], the pIC50 [1] was no less than 7.00, the pIC50 [2] was no less than 7.00 and the pIC50 [3] was no less than 7.00.
Work on `CC(C)(O)Cc1cnc(-c2nc(N[C@H]3CCN(S(C)(=O)=O)C[C@H]3F)ncc2C(F)(F)F)s1` [Example 108, 1-(2-(2-(((3R,4S)-3-fluoro-1-(methylsulfonyl)piperidin-4-yl)amino)-5-(trifluoromethyl)pyrimidin-4-yl)thiazol-5-yl)-2-methylpropan-2-ol] yielded a pIC50 [1] of no less than 7.00, a pIC50 [2] of no less than 7.00 and a pIC50 [3] of 6.30 to 7.00.
`Cn1cc(S(=O)(=O)N2CC[C@H](Nc3ncc(C(F)(F)F)c(-c4ncc(CC(C)(C)O)s4)n3)[C@H](F)C2)cn1` [Example 109, 1-(2-(2-(((3R,4S)-3-fluoro-1-((1-methyl-1H-pyrazol-4-yl)sulfonyl)piperidin-4-yl)amino)-5-(trifluoromethyl)pyrimidin-4-yl)thiazol-5-yl)-2-methylpropan-2-ol] gave a pIC50 [1] of no less than 7.00, a pIC50 [2] of no less than 7.00 and a pIC50 [3] of no less than 7.00.
`CC(O)c1cnc(-c2nc(N[C@H]3CCN(S(=O)(=O)c4cnn(C)c4)C[C@H]3F)ncc2C(F)(F)F)s1` (stereo partly drawn) [Example 114, 1-(2-(2-(((3R,4S)-3-fluoro-1-((1-methyl-1H-pyrazol-4-yl)sulfonyl)piperidin-4-yl)amino)-5-(trifluoromethyl)pyrimidin-4-yl)thiazol-5-yl)ethan-1-ol] was tested, and the pIC50 [1] was no less than 7.00, the pIC50 [2] was no less than 7.00 and the pIC50 [3] was 6.30 to 7.00.

From patent US20240150340A1, “CDK Inhibitors And Their Use As Pharmaceuticals” (Prelude Therapeutics Incorporated, priority 2022, published 2024)
